Source: the supplement of paper PMC10307832

Tests used:
Test in all cases: relative viability (nuclei count vs DMSO), 5 days (fraction); higher = more cells survive
[1] = compound: CCn1c(-c2nonc2N)nc2cnc(Oc3cccc(NC(=O)c4ccc(OCCN5CCOCC5)cc4)c3)cc21 + C[C@@H](Oc1cc(-c2cnn(C3CCNCC3)c2)cnc1N)c1c(Cl)ccc(F)c1Cl [Crizotinib] (partner 1 µM)
How it was run: (§1)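 Relative viability equals treated-well nuclei counts divided by vehicle-well nuclei counts. Counts came from 4× images of lung cancer cell lines grown in 1536-well plates for 5 days after pin-tool dosing on the day after seeding. Dosing used one drug alone or a fixed anchor-drug dose plus five library-drug doses (not always all listed) in √10 steps, and values are medians of duplicate plates.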

[2] = compound: CCn1c(-c2nonc2N)nc2cnc(Oc3cccc(NC(=O)c4ccc(OCCN5CCOCC5)cc4)c3)cc21 + CCNC(=O)c1noc(-c2cc(C(C)C)c(O)cc2O)c1-c1ccc(CN2CCOCC2)cc1 [Luminespib] (partner 0.01 µM)
How it was run: as §1

Mirin + Lapatinib = compound: N=C1NC(=O)/C(=C/c2ccc(O)cc2)S1 [Mirin] + CS(=O)(=O)CCNCc1ccc(-c2ccc3ncnc(Nc4ccc(OCc5cccc(F)c5)c(Cl)c4)c3c2)o1 [Lapatinib] (partner 2 µM)
How it was run: as §1

[3] = compound: CCC1=CN=CN=C1N2CCN(CC2)CC3=NC4=C(N3)C=C(C=C4)C(F)(F)F + N=C(N)NC(=N)NCCc1ccccc1 [Phenformin] (partner 250 µM)
How it was run: as §1

Cell Line | relative viability ([1]; first compound 0.04 µM) | relative viability ([1]; first compound 0.1265 µM) | relative viability ([1]; first compound 1.265 µM) | relative viability ([1]; first compound 4 µM) | relative viability ([2]; first compound 0.04 µM) | relative viability ([2]; first compound 0.1265 µM) | relative viability ([2]; first compound 0.4 µM) | relative viability ([2]; first compound 1.265 µM) | relative viability ([2]; first compound 4 µM) | relative viability (Mirin + Lapatinib; first compound 0.25 µM) | relative viability (Mirin + Lapatinib; first compound 2.5 µM) | relative viability (Mirin + Lapatinib; first compound 7.906 µM) | relative viability (Mirin + Lapatinib; first compound 25 µM) | relative viability ([3]; first compound 0.04 µM) | relative viability ([3]; first compound 0.1265 µM) | relative viability ([3]; first compound 0.4 µM) | relative viability ([3]; first compound 1.265 µM) | relative viability ([3]; first compound 4 µM) | relative viability ([1]; first compound 0.4 µM) | relative viability (Mirin + Lapatinib; first compound 0.7906 µM)
NCI-H23 | 0.812 | 0.82 | 0.439 | 0.305 | 0.225 | 0.242 | 0.217 | 0.21 | 0.215 | 1.17 | 1.13 | 0.936 | 0.742 | 0.703 | 0.742 | 0.768 | 0.73 | 0.792 | – | –
NCI-H322M | 1.28 | 0.976 | 0.953 | 0.922 | 1.25 | 1.16 | 0.931 | 0.434 | 0.587 | 0.569 | 0.929 | 0.683 | 0.705 | 0.874 | 0.761 | 0.772 | 0.632 | 0.799 | 0.96 | 0.831
NCI-H358 | 0.561 | 0.661 | 0.467 | 0.281 | 0.667 | 0.302 | – | 0.535 | 0.198 | 0.466 | 0.489 | 0.52 | 0.379 | 0.345 | 0.289 | 0.372 | 0.317 | 0.349 | 0.522 | 0.514
NCI-H460 | 0.962 | 0.697 | 0.276 | 0.0863 | 0.0313 | 0.0331 | 0.0317 | 0.0272 | 0.0222 | 1.05 | 1.06 | 0.836 | 0.631 | 0.465 | 0.525 | 0.484 | 0.439 | 0.499 | 0.597 | 1.01
NCI-H520 | 0.957 | 0.784 | 0.565 | 0.371 | 0.232 | 0.215 | 0.217 | 0.197 | 0.183 | 0.97 | 0.857 | 0.551 | 0.391 | 0.553 | 0.648 | 0.38 | – | 0.46 | 0.751 | 0.605
NCI-H596 | 0.857 | 0.934 | 0.959 | 1.03 | 1.28 | 1.1 | 1.01 | 0.979 | 0.97 | 1.1 | 1.04 | 1.1 | 0.983 | 0.729 | 0.66 | 0.67 | – | 0.79 | 0.932 | 1.07
NCI-H647 | 1.28 | 0.865 | 0.511 | 0.389 | 0.18 | 0.139 | 0.269 | 0.106 | 0.116 | 1.31 | 1.07 | 1.1 | 0.427 | 0.555 | 0.589 | 0.518 | 0.461 | 0.626 | 0.813 | 1.09
NCI-H650 | 0.838 | 0.758 | 0.388 | 0.339 | 0.959 | 0.741 | 0.424 | 0.242 | 0.296 | 0.943 | 0.902 | – | 1.02 | 0.442 | 0.418 | 0.466 | 0.454 | 0.464 | 0.432 | –
NCI-H661 | 0.993 | 1.05 | 0.694 | 0.86 | 0.995 | 0.934 | 0.936 | 0.739 | 0.642 | 0.407 | 0.539 | 0.442 | 0.392 | 0.28 | 0.259 | 0.301 | 0.263 | 0.313 | 1.13 | 0.567
NCI-H727 | 1.16 | 1.04 | 0.835 | 0.823 | 0.418 | 0.264 | 0.352 | 0.379 | 0.413 | 0.995 | 0.96 | 0.672 | 0.851 | 0.505 | 0.541 | 0.439 | – | 0.671 | 1.14 | 0.714
NCI-H838 | 0.725 | 0.427 | 0.272 | 0.228 | 0.366 | 0.235 | 0.252 | 0.2 | 0.208 | 1.15 | 1.07 | 0.898 | 0.658 | 0.575 | 0.507 | 0.536 | 0.434 | 0.596 | 0.466 | 0.454
NCI-H1355 | 1.16 | 1.11 | 1.01 | 1.01 | 0.744 | 0.742 | 0.672 | 0.759 | 0.797 | 1.01 | 1.01 | 1.1 | 1.11 | 0.456 | 0.428 | 0.406 | 0.395 | 0.424 | 1.18 | 0.961
NCI-H1437 | 0.788 | 0.949 | 0.703 | 0.666 | 1.25 | 1.23 | 1.11 | 0.897 | 0.766 | 0.912 | 0.776 | 0.762 | 0.394 | 0.343 | 0.295 | 0.302 | 0.255 | 0.317 | 0.749 | 0.741
NCI-H1563 | 0.768 | 0.863 | 0.789 | 0.668 | 1.23 | 0.514 | 0.482 | 0.466 | 0.48 | 1.05 | 1.09 | 0.867 | 0.853 | 0.713 | 0.639 | 0.662 | 0.661 | 0.689 | 0.816 | 1.09
NCI-H1650 | 1.12 | 0.957 | 0.761 | 0.711 | 0.248 | 0.198 | 0.196 | 0.191 | 0.183 | 0.774 | 0.891 | 0.708 | 0.465 | 0.484 | 0.519 | 0.392 | – | 0.416 | 0.897 | 0.501
NCI-H1651 | 0.871 | 0.98 | 0.667 | 0.907 | 0.843 | 1.14 | 0.71 | 0.689 | 0.491 | 0.882 | 0.938 | 0.711 | 0.824 | 0.369 | 0.321 | 0.308 | 0.332 | 0.375 | 0.822 | 0.832
